Laboratory results: ChEMBL document CHEMBL4507289, “Data for DCP probe GSM1” (2021)

Experiments:
[1] = target: Inhibitor of nuclear factor kappa-B kinase subunit epsilon (Homo sapiens) (UniProt Q14164); details: Compound concentration 1000.0 nM
[2] = target: Serine/threonine-protein kinase tousled-like 1 (Homo sapiens) (UniProt Q9UKI8); details: Compound concentration 1000.0 nM
[3] = target: Serine/threonine-protein kinase ULK1 (Homo sapiens) (UniProt O75385); details: Compound concentration 1000.0 nM
[4] = target: Tyrosine-protein kinase ABL2 (Homo sapiens) (UniProt P42684); details: Compound concentration 1000.0 nM
[5] = target: RAF proto-oncogene serine/threonine-protein kinase (Homo sapiens) (UniProt P04049); details: Compound concentration 1000.0 nM
[6] = target: Dual specificity mitogen-activated protein kinase kinase 4 (Homo sapiens) (UniProt P45985); details: Compound concentration 1000.0 nM
[7] = target: Protein kinase C delta type (Homo sapiens) (UniProt Q05655); details: Compound concentration 1000.0 nM
[8] = target: Protein-tyrosine kinase 6 (Homo sapiens) (UniProt Q13882); details: Compound concentration 1000.0 nM
[9] = target: Serine/threonine-protein kinase MARK2 (Homo sapiens) (UniProt Q7KZI7); details: Compound concentration 1000.0 nM
[10] = target: T1, Sigma intracellular receptor 2 (Homo sapiens, UniProt Q5BJF2); details: Compound concentration 10.0 uM
[11] = target: AP2-associated protein kinase 1 (Homo sapiens) (UniProt Q2M2I8); details: Compound concentration 1000.0 nM
[12] = target: Proto-oncogene tyrosine-protein kinase Src (Homo sapiens) (UniProt P12931); details: Compound concentration 1000.0 nM
[13] = target: Protein kinase C iota type (Homo sapiens) (UniProt P41743); details: Compound concentration 1000.0 nM
[14] = target: Serine/threonine-protein kinase Nek5 (Homo sapiens) (UniProt Q6P3R8); details: Compound concentration 1000.0 nM
[15] = target: G protein-coupled receptor kinase 4 (Homo sapiens) (UniProt P32298); details: Compound concentration 1000.0 nM
[16] = target: Angiopoietin-1 receptor (Homo sapiens) (UniProt Q02763); details: Compound concentration 1000.0 nM
[17] = target: Mitogen-activated protein kinase kinase kinase 19 (Homo sapiens) (UniProt Q56UN5); details: Compound concentration 1000.0 nM
[18] = target: cAMP-dependent protein kinase catalytic subunit beta (Homo sapiens) (UniProt P22694); details: Compound concentration 1000.0 nM
[19] = target: Non-receptor tyrosine-protein kinase TYK2 (Homo sapiens) (UniProt P29597); details: Compound concentration 1000.0 nM
[20] = target: Mitotic checkpoint serine/threonine-protein kinase BUB1 (Homo sapiens) (UniProt O43683); details: Compound concentration 1000.0 nM
[21] = target: Tyrosine-protein kinase JAK3 (Homo sapiens) (UniProt P52333); details: Compound concentration 1000.0 nM
[22] = target: Ribosomal protein S6 kinase alpha-5 (Homo sapiens) (UniProt O75582); details: Compound concentration 1000.0 nM
[23] = target: Serine/threonine-protein kinase WNK2 (Homo sapiens) (UniProt Q9Y3S1); details: Compound concentration 1000.0 nM
[24] = target: Serine/threonine-protein kinase WNK1 (Homo sapiens) (UniProt Q9H4A3); details: Compound concentration 1000.0 nM
[25] = target: Protein kinase C theta type (Homo sapiens) (UniProt Q04759); details: Compound concentration 1000.0 nM
[26] = target: Dual specificity mitogen-activated protein kinase kinase 6 (Homo sapiens) (UniProt P52564); details: Compound concentration 1000.0 nM
[27] = target: Mitogen-activated protein kinase kinase kinase 6 (Homo sapiens) (UniProt O95382); details: Compound concentration 1000.0 nM
[28] = target: Mitogen-activated protein kinase kinase kinase 10 (Homo sapiens) (UniProt Q02779); details: Compound concentration 1000.0 nM
[29] = target: Mitogen-activated protein kinase kinase kinase 12 (Homo sapiens) (UniProt Q12852); details: Compound concentration 1000.0 nM
[30] = target: Cyclin-dependent kinase-like 5 (Homo sapiens) (UniProt O76039); details: Compound concentration 1000.0 nM
[31] = test system: Serine/threonine-protein kinase B-raf (Homo sapiens), P15056 [V600E]; details: Compound concentration 1000.0 nM
[32] = target: Mitogen-activated protein kinase kinase kinase 9 (Homo sapiens) (UniProt P80192); details: Compound concentration 1000.0 nM
[33] = test system: Fibroblast growth factor receptor 3 (Homo sapiens), P22607 [G697C]; details: Compound concentration 1000.0 nM
[34] = target: Serine/threonine-protein kinase Nek4 (Homo sapiens) (UniProt P51957); details: Compound concentration 1000.0 nM
[35] = target: Cyclin-dependent kinase-like 1 (Homo sapiens) (UniProt Q00532); details: Compound concentration 1000.0 nM
[36] = target: Serine/threonine-protein kinase D1 (Homo sapiens) (UniProt Q15139); details: Compound concentration 1000.0 nM
[37] = target: Cyclin-dependent kinase 11A (Homo sapiens) (UniProt Q9UQ88); details: Compound concentration 1000.0 nM
[38] = target: Serine/threonine-protein kinase PAK 6 (Homo sapiens) (UniProt Q9NQU5); details: Compound concentration 1000.0 nM
[39] = target: Phosphatidylinositol 5-phosphate 4-kinase type-2 gamma (Homo sapiens) (UniProt Q8TBX8); details: Compound concentration 1000.0 nM
[40] = test system: Proto-oncogene tyrosine-protein kinase receptor Ret (Homo sapiens), P07949 [V804L]; details: Compound concentration 1000.0 nM
[41] = target: Serine/threonine-protein kinase MRCK alpha (Homo sapiens) (UniProt Q5VT25); details: Compound concentration 1000.0 nM
[42] = target: T1, Sigma intracellular receptor 2; test: GPCRScan assay: inhibition of Sigma 2; set-up: radioligand conc. used [nm] 5.0, parental cells HEKT
[43] = target: Ribosomal protein S6 kinase alpha-3 (Homo sapiens) (UniProt P51812); details: Compound concentration 1000.0 nM
[44] = target: Casein kinase I isoform delta (Homo sapiens) (UniProt P48730); details: Compound concentration 1000.0 nM
[45] = target: Insulin receptor-related protein (Homo sapiens) (UniProt P14616); details: Compound concentration 1000.0 nM

T1 sequence (Q5BJF2 whole entry): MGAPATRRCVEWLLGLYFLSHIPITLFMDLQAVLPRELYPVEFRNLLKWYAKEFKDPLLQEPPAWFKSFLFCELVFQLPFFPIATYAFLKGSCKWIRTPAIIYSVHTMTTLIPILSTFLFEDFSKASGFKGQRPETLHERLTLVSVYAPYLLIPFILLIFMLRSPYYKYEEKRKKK
Sequence of Phosphatidylinositol 5-phosphate 4-kinase type-2 gamma (Homo sapiens) (Q8TBX8 whole entry): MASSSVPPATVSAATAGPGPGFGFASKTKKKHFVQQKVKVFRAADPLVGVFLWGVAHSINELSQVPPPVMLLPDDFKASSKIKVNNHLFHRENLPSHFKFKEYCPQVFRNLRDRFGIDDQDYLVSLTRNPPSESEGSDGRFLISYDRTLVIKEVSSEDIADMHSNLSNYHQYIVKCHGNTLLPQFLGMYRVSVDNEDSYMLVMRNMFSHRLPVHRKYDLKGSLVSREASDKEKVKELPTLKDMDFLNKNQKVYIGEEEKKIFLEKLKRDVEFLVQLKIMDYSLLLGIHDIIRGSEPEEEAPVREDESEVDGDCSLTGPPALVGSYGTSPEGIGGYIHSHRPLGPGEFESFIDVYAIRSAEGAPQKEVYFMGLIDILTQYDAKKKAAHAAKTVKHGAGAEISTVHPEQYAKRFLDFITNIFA
Sequence of Protein kinase C delta type (Homo sapiens) (Q05655 whole entry, looked up): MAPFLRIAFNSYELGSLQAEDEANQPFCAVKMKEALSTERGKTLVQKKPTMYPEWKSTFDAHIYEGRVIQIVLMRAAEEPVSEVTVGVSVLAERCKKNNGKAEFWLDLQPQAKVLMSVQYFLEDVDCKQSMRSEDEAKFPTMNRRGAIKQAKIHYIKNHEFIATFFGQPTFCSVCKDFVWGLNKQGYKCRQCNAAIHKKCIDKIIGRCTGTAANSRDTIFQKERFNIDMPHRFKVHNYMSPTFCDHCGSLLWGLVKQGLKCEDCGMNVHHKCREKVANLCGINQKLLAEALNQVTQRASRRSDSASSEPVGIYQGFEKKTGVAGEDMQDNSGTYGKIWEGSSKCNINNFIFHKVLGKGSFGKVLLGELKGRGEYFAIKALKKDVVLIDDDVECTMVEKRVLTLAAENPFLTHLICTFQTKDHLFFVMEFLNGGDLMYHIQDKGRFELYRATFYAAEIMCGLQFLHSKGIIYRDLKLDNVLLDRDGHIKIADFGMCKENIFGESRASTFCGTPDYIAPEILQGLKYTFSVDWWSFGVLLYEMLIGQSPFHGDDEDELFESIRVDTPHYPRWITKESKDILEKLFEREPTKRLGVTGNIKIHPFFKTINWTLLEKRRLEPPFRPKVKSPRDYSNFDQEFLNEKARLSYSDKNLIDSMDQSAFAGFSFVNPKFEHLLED
Sequence of Casein kinase I isoform delta (Homo sapiens) (P48730 whole entry, looked up, canonical isoform): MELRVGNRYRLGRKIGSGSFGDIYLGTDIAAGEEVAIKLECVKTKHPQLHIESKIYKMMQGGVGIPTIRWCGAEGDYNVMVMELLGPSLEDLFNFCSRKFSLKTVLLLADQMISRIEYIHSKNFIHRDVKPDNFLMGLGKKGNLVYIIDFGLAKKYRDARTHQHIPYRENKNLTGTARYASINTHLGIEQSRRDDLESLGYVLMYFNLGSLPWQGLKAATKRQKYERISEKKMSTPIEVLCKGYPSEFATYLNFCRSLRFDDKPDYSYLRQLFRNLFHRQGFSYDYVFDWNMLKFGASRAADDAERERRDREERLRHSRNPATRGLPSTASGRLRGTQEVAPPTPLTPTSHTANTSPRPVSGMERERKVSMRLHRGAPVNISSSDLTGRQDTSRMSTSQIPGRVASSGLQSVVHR
Sequence of G protein-coupled receptor kinase 4 (Homo sapiens) (P32298 whole entry, looked up): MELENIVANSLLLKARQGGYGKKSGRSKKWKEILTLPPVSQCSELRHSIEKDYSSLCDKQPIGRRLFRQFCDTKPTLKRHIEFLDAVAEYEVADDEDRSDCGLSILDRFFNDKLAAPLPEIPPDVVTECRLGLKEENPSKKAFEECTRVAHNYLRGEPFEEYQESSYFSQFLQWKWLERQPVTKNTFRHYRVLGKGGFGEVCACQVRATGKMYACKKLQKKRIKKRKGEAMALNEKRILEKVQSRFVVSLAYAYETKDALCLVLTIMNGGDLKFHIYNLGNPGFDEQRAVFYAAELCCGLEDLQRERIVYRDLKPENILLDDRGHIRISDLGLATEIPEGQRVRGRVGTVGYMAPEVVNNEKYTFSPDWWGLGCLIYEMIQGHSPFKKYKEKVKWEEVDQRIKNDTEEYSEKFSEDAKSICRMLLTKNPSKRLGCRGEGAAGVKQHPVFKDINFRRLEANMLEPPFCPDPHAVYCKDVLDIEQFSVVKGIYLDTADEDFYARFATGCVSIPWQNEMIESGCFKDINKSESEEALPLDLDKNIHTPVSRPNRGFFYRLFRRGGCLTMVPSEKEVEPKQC
Sequence of RAF proto-oncogene serine/threonine-protein kinase (Homo sapiens) (P04049 whole entry): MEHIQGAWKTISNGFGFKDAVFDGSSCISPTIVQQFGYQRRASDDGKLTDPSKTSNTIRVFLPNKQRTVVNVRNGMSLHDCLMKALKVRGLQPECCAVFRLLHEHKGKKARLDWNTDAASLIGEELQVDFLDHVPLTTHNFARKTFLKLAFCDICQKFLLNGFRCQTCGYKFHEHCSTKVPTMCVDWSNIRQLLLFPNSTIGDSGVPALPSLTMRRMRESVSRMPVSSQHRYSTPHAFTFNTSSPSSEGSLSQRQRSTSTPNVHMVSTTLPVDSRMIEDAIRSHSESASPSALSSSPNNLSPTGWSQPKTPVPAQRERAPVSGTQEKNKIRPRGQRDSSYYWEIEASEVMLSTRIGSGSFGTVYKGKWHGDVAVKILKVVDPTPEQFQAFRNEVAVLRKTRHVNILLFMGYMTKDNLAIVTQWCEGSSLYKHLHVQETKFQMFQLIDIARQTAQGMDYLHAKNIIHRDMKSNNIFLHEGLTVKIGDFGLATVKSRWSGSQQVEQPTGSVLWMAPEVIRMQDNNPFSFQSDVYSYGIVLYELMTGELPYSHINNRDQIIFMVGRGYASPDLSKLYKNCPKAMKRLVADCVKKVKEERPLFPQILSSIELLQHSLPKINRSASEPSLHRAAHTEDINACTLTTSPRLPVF
Sequence of Mitogen-activated protein kinase kinase kinase 9 (Homo sapiens) (P80192 whole entry, looked up): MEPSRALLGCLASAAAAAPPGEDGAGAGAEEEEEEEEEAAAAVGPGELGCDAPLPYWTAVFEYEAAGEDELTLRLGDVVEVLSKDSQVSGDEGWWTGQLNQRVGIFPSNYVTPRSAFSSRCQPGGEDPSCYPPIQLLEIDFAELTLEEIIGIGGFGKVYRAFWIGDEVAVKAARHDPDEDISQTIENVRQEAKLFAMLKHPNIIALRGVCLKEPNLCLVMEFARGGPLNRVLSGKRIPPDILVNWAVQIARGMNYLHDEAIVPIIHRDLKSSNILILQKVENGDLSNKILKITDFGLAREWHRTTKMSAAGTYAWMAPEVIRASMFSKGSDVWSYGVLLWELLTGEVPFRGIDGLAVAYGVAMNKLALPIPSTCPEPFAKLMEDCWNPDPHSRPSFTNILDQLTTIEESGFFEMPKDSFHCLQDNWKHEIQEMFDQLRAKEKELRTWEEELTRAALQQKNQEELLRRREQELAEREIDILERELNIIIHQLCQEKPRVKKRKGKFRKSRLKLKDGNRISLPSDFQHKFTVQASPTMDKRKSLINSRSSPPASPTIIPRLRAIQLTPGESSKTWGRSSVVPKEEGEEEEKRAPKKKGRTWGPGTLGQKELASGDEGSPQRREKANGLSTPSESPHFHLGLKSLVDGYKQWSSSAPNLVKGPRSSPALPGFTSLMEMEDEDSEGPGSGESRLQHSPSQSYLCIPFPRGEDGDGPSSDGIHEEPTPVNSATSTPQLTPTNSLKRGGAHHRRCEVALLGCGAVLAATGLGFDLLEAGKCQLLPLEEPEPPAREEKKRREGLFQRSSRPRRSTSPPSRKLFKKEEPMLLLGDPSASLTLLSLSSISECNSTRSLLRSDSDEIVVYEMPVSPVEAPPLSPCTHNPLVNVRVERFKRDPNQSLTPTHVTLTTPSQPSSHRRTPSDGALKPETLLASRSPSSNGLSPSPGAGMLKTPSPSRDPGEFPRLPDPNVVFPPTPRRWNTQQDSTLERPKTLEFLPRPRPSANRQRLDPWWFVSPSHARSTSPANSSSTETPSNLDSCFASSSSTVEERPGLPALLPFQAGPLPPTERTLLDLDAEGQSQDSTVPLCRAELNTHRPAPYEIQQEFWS
Sequence of Fibroblast growth factor receptor 3 (Homo sapiens), P22607 [G697C] (P22607 whole entry G697C): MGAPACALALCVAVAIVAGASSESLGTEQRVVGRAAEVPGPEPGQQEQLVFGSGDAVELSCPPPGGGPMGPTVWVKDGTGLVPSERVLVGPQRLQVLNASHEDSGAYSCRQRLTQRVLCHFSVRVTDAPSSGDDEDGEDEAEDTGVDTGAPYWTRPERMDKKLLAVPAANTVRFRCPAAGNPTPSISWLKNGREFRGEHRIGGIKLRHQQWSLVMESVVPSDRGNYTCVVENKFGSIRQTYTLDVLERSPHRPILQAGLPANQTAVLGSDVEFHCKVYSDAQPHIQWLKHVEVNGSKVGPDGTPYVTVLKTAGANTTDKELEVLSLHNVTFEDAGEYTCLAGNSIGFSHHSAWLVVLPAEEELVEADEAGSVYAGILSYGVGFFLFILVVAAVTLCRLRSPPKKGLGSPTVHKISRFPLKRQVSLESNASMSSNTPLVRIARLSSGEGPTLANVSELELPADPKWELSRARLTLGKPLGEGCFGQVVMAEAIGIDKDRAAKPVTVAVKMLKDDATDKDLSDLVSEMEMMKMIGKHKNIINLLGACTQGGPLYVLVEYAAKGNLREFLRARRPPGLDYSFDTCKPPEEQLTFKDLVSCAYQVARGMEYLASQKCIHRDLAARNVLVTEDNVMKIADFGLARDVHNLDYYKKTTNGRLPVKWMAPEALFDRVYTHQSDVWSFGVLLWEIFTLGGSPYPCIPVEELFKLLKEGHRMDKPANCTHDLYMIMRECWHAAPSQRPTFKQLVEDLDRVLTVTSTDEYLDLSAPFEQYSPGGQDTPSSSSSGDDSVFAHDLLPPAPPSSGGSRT

With `COc1cc(-c2cn([C@H]3CCc4ccccc4N(CC(F)(F)F)C3=O)nn2)ccc1-n1ccc(C)n1` the residual activity [1] was 68%, the residual activity [2] was 84% and the residual activity [3] was 76%. It also gave a residual activity [4] of 100%, a residual activity [5] of 98% and a residual activity [6] of 100%. For the same compound, the residual activity [7] was 98%, the residual activity [8] was 100% and the residual activity [9] was 93%. The inhibition [10] was 72%, the residual activity [11] was 100% and the residual activity [12] was 100%. For the same compound, the residual activity [13] was 100%, the residual activity [14] was 100% and the residual activity [15] was 100%. It also gave a residual activity [16] of 81%, a residual activity [17] of 95% and a residual activity [18] of 81%. It also gave a residual activity [19] of 100%, a residual activity [20] of 94% and a residual activity [21] of 88%. For the same compound, the residual activity [22] was 74%, the residual activity [23] was 87% and the residual activity [24] was 100%. The residual activity [25] was 94%, the residual activity [26] was 100% and the residual activity [27] was 53%. For the same compound, the residual activity [28] was 96%, the residual activity [29] was 100% and the residual activity [30] was 87%. For the same compound, the residual activity [31] was 97%, the residual activity [32] was 91% and the residual activity [33] was 90%. It also gave a residual activity [34] of 100%, a residual activity [35] of 97% and a residual activity [36] of 100%. For the same compound, the residual activity [37] was 97%, the residual activity [38] was 100% and the residual activity [39] was 100%. The residual activity [40] was 100%, the residual activity [41] was 100% and the Ki ([42]; read-out: Ki) was 835 nM. For the same compound, the Ki ([42]; read-out: pKi (converted)) was 741 nM, the residual activity [43] was 100% and the residual activity [44] was 100%. For the same compound, the residual activity [45] was 100%.

Work on `COc1cc(-c2cn([C@H]3CCc4c(F)cccc4N(CC(F)(F)F)C3=O)nn2)ccc1-n1cnc(C)c1` yielded a residual activity [1] of 100%, a residual activity [2] of 100% and a residual activity [3] of 100%. It also gave a residual activity [4] of 100%, a residual activity [5] of 100% and a residual activity [6] of 93%. For the same compound, the residual activity [7] was 100%, the residual activity [8] was 100% and the residual activity [9] was 100%. The inhibition [10] was 50%, the residual activity [11] was 100% and the residual activity [12] was 93%. The residual activity [13] was 100%, the residual activity [14] was 90% and the residual activity [15] was 100%. For the same compound, the residual activity [16] was 100%, the residual activity [17] was 100% and the residual activity [18] was 95%. For the same compound, the residual activity [19] was 100%, the residual activity [20] was 100% and the residual activity [21] was 100%. It also gave a residual activity [22] of 100%, a residual activity [23] of 53% and a residual activity [24] of 100%. It also gave a residual activity [25] of 89%, a residual activity [26] of 100% and a residual activity [27] of 98%. It also gave a residual activity [28] of 100%, a residual activity [29] of 100% and a residual activity [30] of 91%. For the same compound, the residual activity [31] was 100%, the residual activity [32] was 100% and the residual activity [33] was 100%. The residual activity [34] was 100%, the residual activity [35] was 100% and the residual activity [36] was 100%. It also gave a residual activity [37] of 100%, a residual activity [38] of 100% and a residual activity [39] of 100%. The residual activity [40] was 100%, the residual activity [41] was 100% and the Ki ([42]; read-out: Ki) was 890 nM. For the same compound, the residual activity [43] was 100%, the residual activity [44] was 100% and the residual activity [45] was 100%.
